Where “and” joins values, the source holds several entries; their conditions need not be identical. Equal entries are not always repeated. Where two headings read alike, the source gives them in different places.
Columns and labels:
L. infantum = assay: Promastigote back-transformation assay on organs of treated hamsters; type: in vivo, golden hamsters; details: for parasite score, Bone-marrow / parasite score, Liver / parasite score, Spleen: 5 days, individual animals 1-5
Description: Female golden hamsters (5 per treatment group) were infected through intracardiac administration of 2x10^7 L. infantum amastigotes obtained from the spleen of a heavily infected donor hamster. […] After 5-day treatment period, followed by a 10-day wash out period, animals were sacrificed, and parasites burden assessed in the three target organs (liver, spleen, and bone-marrow). For this assessment, organs of individual animals were weighed, except for bone-marrow thus only providing a semi-quantitative evaluation only. Impression smears were Giemsa-stained for microscopic evaluation of amastigote burden, expressed as LDU (= mean number of amastigotes/cell × organ weight in mg) and the results were expressed as a percentage reduction compared to the burdens in the control group (vehicle as placebo). For evaluating the presence of viable residual burden after treatment, a promastigote back-transformation assay was conducted. This consisted of the incubation at ambient temperature of aseptically collected pieces of spleen or liver tissue in 1 mL of promastigote back-transformation medium in 24-well plates. For the bone-marrow, resected femurs were flushed with 1 mL medium. The medium consists of HOMEM pH 6.0 prepared as described elsewhere ([5]) with 10% fetal bovine serum (Gibco), 2.5% penicillin/streptomycin and 1% gentamicin (Merck). A qualitative assessment of the presence of promastigotes was made after 3 and 5 days of incubation and a score was attributed (+, ++ or +++) based on parasite density in the positive wells.
Supplementary Materials and methods
Promastigote transformation assay
For evaluating the presence of viable residual burdens after treatment, a promastigote back-transformation assay is conducted. This test consists of the incubation at ambient temperature of aseptically collected pieces of spleen or liver tissue in 1 mL of promastigote back-transformation medium in 24-well plates. For the bone-marrow, resected femurs are flushed with 1 mL medium. The medium consists of HOMEM pH 6.0 prepared as described elsewhere (1) with 10% fetal bovine serum (Gibco) and 2.5% penicillin/streptomycin and 1% gentamicin (Merck). A qualitative assessment of the presence of promastigotes is made after 3 and 5 days of incubation and a score is attributed (+, ++ or +++) based on parasite density in the positive […]
Supplementary Information on Tables
L. infantum MHOM/FR/96/LEM3323 Cl4 was originally obtained from a French HIV-positive patient (Languedoc area in Southern France) and provided by Dr. Laurence Lachaud of the Centre National de Référence des Leishmanioses (CNRL), Montpellier, France. The miltefosine and paromomycin resistant lines (LEM3323 Cl4 MIL-R and PMM-R) were obtained by successive in vitro selection cycles on intracellular amastigotes (2, 3)

[1] = In vitro cytotoxicity assay; type: cell-based; details: rat, L-6 rat skeletal myoblasts
CYP2C19 = target: T1, CYP2C19 (Homo sapiens, UniProt P33261); assay: Cytochrome P450 inhibition, human liver microsomes; type: in vitro ADME
T1 construct: incubation of isoform-specific substrates with human liver microsomes; from tissue; host or cells: human liver microsomes
Procedure: (§1) Direct CYP inhibition studies were conducted using conditions described previously ([43]) following incubation of isoform-specific substrates with human liver microsomes. The formation of known metabolites mediated by a specific CYP isoform was monitored. CYP isoform-specific pathways (and positive control inhibitors) included CYP1A2: phenacetin O-deethylation (furafylline), CYP2B6: bupropion hydroxylation (PPP), CYP2C8: amodiaquine deethylation (quercetin) CYP2C9: tolbutamide methylhydroxylation (sulfaphenazole), CYP2C19: (S)-mephenytoin 4’-hydroxylation (ticlopidine), CYP2D6: dextromethorphan O-demethylation (quinidine), and CYP3A: midazolam 1’-hydroxylation and testosterone 6β-hydroxylation (ketoconazole). […] The organic solvent content was maintained at less than 1% (v/v). NADPH was added to initiate the reaction which was then quenched by the addition of acetonitrile containing internal standard at specified times. Concentrations of the isoform-specific metabolites were quantified by LC-MS (Waters Xevo TQD triple quadrupole MS coupled to a Waters Acquity UPLC system) relative to calibration standards prepared in pre-quenched microsomal matrix.
(§2) Time dependent inhibition was assessed using an “IC50 shift” method based on a previous publication ([44]). […] A shift in the IC50 in the presence of NADPH (relative to the absence) was used as an indication of time dependent inhibition. Reference direct and time-dependent inhibitors were included in the assays.

CYP2D6 = target: T2, CYP2D6 (Homo sapiens, UniProt P10635); assay: Cytochrome P450 inhibition, human liver microsomes; type: in vitro ADME
T2 construct: incubation of isoform-specific substrates with human liver microsomes; from tissue; host or cells: human liver microsomes
Procedure: as §1, §2

CYP3A4/5 = assay: Cytochrome P450 inhibition, human liver microsomes; type: in vitro ADME; details: for IC50: read-out: Direct inhibition IC50; for IC50 at 30 min: read-out: Time-dependent inhibition IC50
Procedure: as §1, §2

CYP2C8 = target: T3, CYP2C8 (Homo sapiens, UniProt P10632); assay: Cytochrome P450 inhibition, human liver microsomes; type: in vitro ADME
T3 construct: incubation of isoform-specific substrates with human liver microsomes; from tissue; host or cells: human liver microsomes
T3 sequence (P10632 1-490): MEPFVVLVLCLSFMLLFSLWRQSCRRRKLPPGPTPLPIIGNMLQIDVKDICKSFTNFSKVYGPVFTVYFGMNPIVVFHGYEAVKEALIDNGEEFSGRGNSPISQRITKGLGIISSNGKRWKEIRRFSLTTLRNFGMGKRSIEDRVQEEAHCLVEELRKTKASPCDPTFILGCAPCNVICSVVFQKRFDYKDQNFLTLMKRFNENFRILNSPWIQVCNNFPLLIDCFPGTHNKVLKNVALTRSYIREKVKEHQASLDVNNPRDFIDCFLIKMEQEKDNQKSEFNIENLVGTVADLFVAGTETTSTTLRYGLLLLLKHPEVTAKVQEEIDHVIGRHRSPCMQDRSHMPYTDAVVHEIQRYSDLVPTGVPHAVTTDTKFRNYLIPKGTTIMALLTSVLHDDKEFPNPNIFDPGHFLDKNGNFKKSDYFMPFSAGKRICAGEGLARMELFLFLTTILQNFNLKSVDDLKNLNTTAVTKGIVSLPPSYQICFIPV
Procedure: as §1, §2

[2] = with NADPH preincubation, read-out: Time-dependent inhibition IC50
[3] = without NADPH preincubation, read-out: Time-dependent inhibition IC50

T2 sequence (P10635 whole entry, canonical isoform): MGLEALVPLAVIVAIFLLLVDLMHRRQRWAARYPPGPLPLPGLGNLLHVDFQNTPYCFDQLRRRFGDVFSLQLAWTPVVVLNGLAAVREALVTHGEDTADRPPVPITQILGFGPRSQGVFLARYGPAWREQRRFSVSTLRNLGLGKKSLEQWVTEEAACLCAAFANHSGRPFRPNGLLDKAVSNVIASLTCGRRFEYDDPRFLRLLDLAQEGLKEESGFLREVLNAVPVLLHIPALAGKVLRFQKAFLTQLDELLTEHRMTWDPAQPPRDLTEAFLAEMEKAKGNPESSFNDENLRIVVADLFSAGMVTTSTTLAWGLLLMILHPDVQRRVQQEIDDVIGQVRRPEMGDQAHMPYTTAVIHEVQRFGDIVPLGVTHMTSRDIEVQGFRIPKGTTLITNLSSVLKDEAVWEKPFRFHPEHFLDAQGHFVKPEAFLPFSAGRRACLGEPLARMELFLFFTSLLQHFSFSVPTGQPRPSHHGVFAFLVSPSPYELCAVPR
T1 sequence (P33261 whole entry, canonical isoform): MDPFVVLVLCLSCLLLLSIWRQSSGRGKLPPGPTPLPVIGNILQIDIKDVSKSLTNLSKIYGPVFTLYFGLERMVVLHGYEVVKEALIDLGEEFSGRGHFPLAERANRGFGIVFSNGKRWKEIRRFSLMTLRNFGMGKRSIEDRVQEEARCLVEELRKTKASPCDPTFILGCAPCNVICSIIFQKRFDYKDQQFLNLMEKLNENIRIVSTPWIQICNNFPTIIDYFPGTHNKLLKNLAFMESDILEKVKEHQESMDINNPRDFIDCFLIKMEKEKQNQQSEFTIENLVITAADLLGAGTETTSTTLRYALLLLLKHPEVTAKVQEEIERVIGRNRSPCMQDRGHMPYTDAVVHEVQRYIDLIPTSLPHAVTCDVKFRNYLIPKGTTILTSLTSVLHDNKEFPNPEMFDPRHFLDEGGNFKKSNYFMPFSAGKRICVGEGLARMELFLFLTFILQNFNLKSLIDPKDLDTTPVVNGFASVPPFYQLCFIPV

Cc1[nH]c2nc(N)nc(C)c2c1-c1ccc(C#N)c2c1OCO2 [DNDI-6174]
parasite score, Bone-marrow (L. infantum; 3.125 mg/kg bid): ++
parasite score, Liver (L. infantum; 3.125 mg/kg bid): + (3×) and - (2×)
parasite score, Spleen (L. infantum; 3.125 mg/kg bid): ++
parasite score, Bone-marrow (L. infantum; 12.5 mg/kg bid): - and +
parasite score, Liver (L. infantum; 12.5 mg/kg bid): -
parasite score, Spleen (L. infantum; 12.5 mg/kg bid): - and +
parasite score, Bone-marrow (L. infantum; 12.5 mg/kg qd): + (3×) and ++ (2×)
parasite score, Liver (L. infantum; 12.5 mg/kg qd): + (3×) and - (2×)
parasite score, Spleen (L. infantum; 12.5 mg/kg qd): ++ (4×) and +
parasite score, Bone-marrow (L. infantum; 25 mg/kg qd): + and - (4×)
parasite score, Liver (L. infantum; 25 mg/kg qd): - (4×) and +
parasite score, Spleen (L. infantum; 25 mg/kg qd): -
parasite score, Bone-marrow (L. infantum; 50 mg/kg qd): - (4×) and +
parasite score, Liver (L. infantum; 50 mg/kg qd): - (4×) and +
parasite score, Spleen (L. infantum; 50 mg/kg qd): - (4×) and +
emergence of viable promastigotes from recovered organs, in words (L. infantum; DNDI-6174 treated animals): almost all the organs recovered proved to be negative in culture
CC50 [1]: > 63 µM
IC50 (CYP2C19; CYP2C19, read-out: Direct inhibition IC50): 19 µM
IC50 (CYP2C19; [2]): 7.4 µM
IC50 (CYP2C19; [3]): 13.6 µM
IC50 (CYP2D6; CYP2D6, read-out: Direct inhibition IC50): 19 µM
IC50 (CYP2D6; [2]): 0.49 µM
IC50 (CYP2D6; [3]): 9.8 µM
IC50 (CYP3A4/5; probe midazolam (1'-hydroxylation), CYP3A4/5, midazolam): > 20 µM
IC50 at 30 min (CYP3A4/5; probe midazolam (1'-hydroxylation), midazolam, with NADPH preincubation): 1.9 µM
IC50 at 30 min (CYP3A4/5; probe midazolam (1'-hydroxylation), midazolam, without NADPH preincubation): > 20 µM
IC50 (CYP3A4/5; probe testosterone (6β-hydroxylation), CYP3A4/5, testosterone): 12.3 µM
IC50 at 30 min (CYP3A4/5; probe testosterone (6β-hydroxylation), testosterone, with NADPH preincubation): 0.71 µM
IC50 at 30 min (CYP3A4/5; probe testosterone (6β-hydroxylation), testosterone, without NADPH preincubation): 8 µM
IC50 (CYP2C8; CYP2C8, read-out: Direct inhibition IC50): > 20 µM
IC50 (CYP2C8; [2]): 3.2 µM
IC50 (CYP2C8; [3]): > 20 µM

— paper PMC7615677 (Science translational medicine, 2023)
